In PMC3522743, “Wax Ester Synthesis is Required for Mycobacterium tuberculosis to Enter In Vitro Dormancy” (PLoS ONE, 2012):

Key:
[1] = target: FCR2 (Rv1543) (Mycobacterium tuberculosis, UniProt P9WGS1)
[2] = target: T1, FCR1 (Rv3391) (Mycobacterium tuberculosis, UniProt O50417)
T1 construct: gene acrA1
T1 sequence (O50417 entry or part of it): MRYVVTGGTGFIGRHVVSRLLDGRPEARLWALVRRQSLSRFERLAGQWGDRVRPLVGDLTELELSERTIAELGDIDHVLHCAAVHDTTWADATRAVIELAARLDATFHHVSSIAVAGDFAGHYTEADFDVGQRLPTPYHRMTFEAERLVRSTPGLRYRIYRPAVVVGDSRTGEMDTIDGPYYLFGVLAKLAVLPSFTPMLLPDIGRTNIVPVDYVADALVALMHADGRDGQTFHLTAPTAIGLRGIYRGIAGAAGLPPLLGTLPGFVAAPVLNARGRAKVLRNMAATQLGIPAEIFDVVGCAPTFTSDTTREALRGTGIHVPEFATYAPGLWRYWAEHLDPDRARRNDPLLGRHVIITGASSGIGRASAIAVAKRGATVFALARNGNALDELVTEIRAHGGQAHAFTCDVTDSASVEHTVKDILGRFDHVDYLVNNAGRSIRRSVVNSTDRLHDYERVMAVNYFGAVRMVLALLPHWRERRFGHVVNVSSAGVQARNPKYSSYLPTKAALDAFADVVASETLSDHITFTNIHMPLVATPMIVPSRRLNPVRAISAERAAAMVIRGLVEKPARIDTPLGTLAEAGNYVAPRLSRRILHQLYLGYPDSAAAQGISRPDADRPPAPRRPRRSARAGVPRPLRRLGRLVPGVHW

Sequence of FCR2 (Rv1543) (P9WGS1 whole entry): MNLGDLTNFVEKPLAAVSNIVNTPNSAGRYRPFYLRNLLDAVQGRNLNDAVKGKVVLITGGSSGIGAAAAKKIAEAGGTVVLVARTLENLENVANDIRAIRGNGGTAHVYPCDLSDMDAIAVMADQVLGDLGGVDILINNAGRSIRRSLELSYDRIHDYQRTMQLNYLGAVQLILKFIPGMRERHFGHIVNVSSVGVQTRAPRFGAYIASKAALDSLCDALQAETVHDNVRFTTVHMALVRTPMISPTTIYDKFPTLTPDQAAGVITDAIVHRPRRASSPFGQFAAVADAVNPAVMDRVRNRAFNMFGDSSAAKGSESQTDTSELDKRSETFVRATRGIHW

Structure (SMILES)	14C product formation, TLC and scintillation counting, E. coli lysate [1]	14C product formation, TLC and scintillation counting, E. coli lysate [2]
NC(=O)C1=CN([C@@H]2O[C@H](COP(=O)(O)OP(=O)(O)OC[C@H]3O[C@@H](n4cnc5c(N)ncnc54)[C@H](OP(=O)(O)O)[C@@H]3O)[C@@H](O)[C@H]2O)C=CC1 [NADPH]	Both FCR1 and FCR2 exhibited strong preference for NADPH as a cofactor	Both FCR1 and FCR2 exhibited strong preference for NADPH as a cofactor
CCCCCCCC/C=C\CCCCCCCC(=O)SCCNC(=O)CCNC(=O)[C@H](O)C(C)(C)COP(=O)(O)OP(=O)(O)OC[C@H]1O[C@@H](n2cnc3c(N)ncnc32)[C@H](O)[C@@H]1OP(=O)(O)O [oleoyl-CoA]	Both of these proteins showed typical substrate saturation with oleoyl-CoA (Fig. 3C, G).	Both of these proteins showed typical substrate saturation with oleoyl-CoA (Fig. 3C, G).
